In ChEMBL document CHEMBL4190194, “Dudawalamides A-D, Antiparasitic Cyclic Depsipeptides from the Marine Cyanobacterium Moorea producens” (J Nat Prod, 2017):
pIC50: −log10 of the molar value. Numbered stars: 1 amine (or outer) side, 2 acyl side, 3 side chain; on linkers, the order of the positions; unused ones are H or OH. Bridge positions count the residues as written; N and C are the ends. Square brackets hold non-standard residues; d marks the D form. Peptide text beside a SMILES is read from it. ξ: configuration not given here. X1 = C#CCCC[C@H](O[*:2])C(C)(C)C(=O)[*:1]; Hmp(2R,3S) = CC[C@H](C)[C@@H](O)C(=O)O; NMeF = CN[C@@H](Cc1ccccc1)C(=O)O; ξNMeF = CNC(Cc1ccccc1)C(=O)O; NMeV = CN[C@H](C(=O)O)C(C)C; Hiv = CC(C)[C@H](O)C(=O)O; ξNMeV = CNC(C(=O)O)C(C)C; ξP = O=C(O)C1CCCN1

Tests used:
NCI-H460 = test: Cytotoxicity against human H460 cells at 30 uM after 48 hrs by MTT assay; type: cell-based; conditions: nci-h460, 48 h
Plasmodium falciparum = test: Antimalarial activity against chloroquine-resistant Plasmodium falciparum W2 infected in human type A positive erythrocytes by [3H]-hypoxanthine incorporation assay; type: functional, organism-based
Leishmania donovani = test: Antileishmanial activity against Leishmania donovani WR2801 axenic amastigotes after 6 days by XTT assay; type: functional, organism-based; conditions: WR2801, 144 h
Trypanosoma cruzi = test: Antitrypanosomal activity against transgenic beta-galactosidase-expressing Trypanosoma cruzi Tulahuen clone C4 ATCC PRA33 assessed as growth inhibition at 10 ug/ml after 4 days relative to control; type: functional; conditions: Tulahuen clone C4 ATCC PRA33, 96 h, read-out: GI

| Structure (SMILES) | Activity (NCI-H460) | pIC50 (Plasmodium falciparum) | pIC50 (Leishmania donovani) | inhibition of growth at 10 µg/mL (Trypanosoma cruzi) |
| --- | --- | --- | --- | --- |
| C#CCCC[C@@H]1OC(=O)CNC(=O)C(Cc2ccccc2)N(C)C(=O)C2CCCN2C(=O)[C@H](C(C)C)OC(=O)C(C(C)C)N(C)C(=O)[C@H](C(C)C)NC(=O)C1(C)C (some centres undefined) (V[ξNMeV][Hiv][ξP][ξNMeF]G; linker N-C via X1) | Non-Toxic | 5.00 |  |  |
| C#CCCC[C@@H]1OC(=O)[C@H](C)NC(=O)[C@H](Cc2ccc(OC)cc2)N(C)C(=O)[C@@H]2CCCN2C(=O)[C@H](Cc2ccccc2)N(C)C(=O)[C@H](C(C)C)NC(=O)C1(C)C | Non-Toxic | 5.10 | < 5.00 | 7% |
| C#CCCC[C@H]1OC(=O)CNC(=O)[C@@H](Cc2ccccc2)N(C)C(=O)[C@@H]2CCCN2C(=O)[C@H]([C@@H](C)CC)N(C)C(=O)[C@H](C)NC(=O)[C@H](C)OC(=O)C1(C)C | Non-Toxic | 5.44 | < 5.00 | 12% |
| C#CCCC[C@@H]1OC(=O)CNC(=O)[C@H](Cc2ccccc2)N(C)C(=O)[C@@H]2CCCN2C(=O)[C@@H]([C@@H](C)CC)OC(=O)[C@H](C(C)C)N(C)C(=O)[C@H](C(C)C)NC(=O)C1(C)C (V[NMeV][Hmp(2R,3S)]P[NMeF]G; linker N-C via X1) | Non-Toxic | 5.46 | 5.59 | 60% |
